Measured values from patent US20250026742A1 (SUZHOU ARK BIOPHARMACEUTICAL CO., LTD., priority 2021, published 2025).
Structures can show the parent of a compound that is named as a salt.

What was measured:
ATR kinase = ATR kinase (Homo sapiens (Human), UniProt Q13535); experiment: ATR enzyme activity inhibition assay (HTRF); format: biochemical; conditions: p53 substrate, full-length ATR enzyme
Description: The inhibitory ability to ATR kinase for selected compounds was tested by the HTRF (Homogeneous Time-Resolved Fluorescence). In the reaction system, After the substrate p53 is phosphorylated by ATR, the anti-phospho-p53-Eu that serves as an energy donor and specifically binds to the phosphorylation site on p53 is added. Then, the anti-GST-d2 as an energy acceptor that specifically binds to the GST tag carried on p53 is added. […] The IC50 of the sample to be tested can be obtained through graphing and calculation.
Prepare various buffer systems required for the experiment: • 1. […] Prepare detection buffer: Dilute each of the anti-phospho-p53-Eu cryptate (Cisbio, Cat #61P08KA) and anti-GST-d2 (Cisbio, Cat #61GSTDLB) to 1 unit using HTRF detection buffer (Cisbio, Cat #62SDBRDF).
Powdered compounds were dissolved in DMSO to from a stock solution at a concentration of 10 mM. The solution of compounds to be tested at a concentration of […] was performed a 3-fold dilution for 10 concentrations with DMSO. […] 5 μL of ATR was added to each well accordingly. Each well is incubated at 25° C. for 10 min, added with 5 μL of reaction substrate, incubated at 25° C. for 90 min and added with 10 μL of detection solution. […] The inhibition curves of the compounds were made by the four-parameter […] regression equation of XLfit software, and the inhibition rates of the compounds were calculated.

[1] = test system: human lung cancer NCI-H23 cells; experiment: In vivo pharmacodynamics in the NCI-H23 subcutaneous graft tumor model; set-up: species or system CB.17/SCID mouse; conditions: for TGI (%) / Tumor change (%): 14 days after administration; for TGI (%) / Tumor change (%) / Tumor volume (mm^3) day 0 / Tumor volume (mm^3) day 14: 12.5 mg/kg PO QD + Cisplatin 1.5 mg/kg IP QW, NCI-H23 xenograft, CB.17/SCID mice; for body weight of mice after drug administration / decrease in tumor volume compared to the Cisplatin+VX-970 group: combination with Cisplatin; for body weight of mice after drug administration: no difference in body weight loss between the groups (FIG. 1); for Tumor volume (mm^3) day 0: day 0 (start of administration); for Tumor volume (mm^3) day 14: 2 weeks; for decrease in tumor volume compared to the Cisplatin+VX-970 group: p<0.05 in T-test (FIGS. 2 and 3)
Description: • 1, cell culture: human lung cancer NCI-H23 cells (ATCC, Item No.: CRL-5800) are performed with an in vitro monolayer culture. […] Trypsin-EDTA was used for conventional digestion and treatment of passaging twice a week. When the cell saturation is […] and the number meets the requirement, the cells are collected, counted and inoculated. • 2, Animals: CB.17/SCID mouse, female, 6-8 weeks old, weighing 18-22 grams. A total of 84 mice are needed, which are provided by Beijing Viton Lihua Laboratory Animal Technology Co., Ltd. or equivalent qualified suppliers. • 3.
• 4. Tumor inoculation: 0.2 mL (10×10^6 cells) of NCI-H23 cells (plus stromal gel, volume ratio 1:1) were subcutaneously inoculated into the right back of each mouse. Mice are grouped for drug administration when the average tumor volume reached about 200 mm^3. Animals were weighed before dosing and tumor volumes were measured. Groups were randomized according to tumor volume (randomized area group design).
• 1 ? The experimental index is to examine whether the tumor growth is inhibited, delayed or cured. […] Calculation of Tumor change (%): Tumor change (%)=(average tumor volume at the end of administration of a treatment group−average tumor volume at the beginning of administration of a treatment group)/average tumor volume at the beginning of administration of a treatment group×100%. Tumor change (%): less than 0, non-growth of the tumor in the mice after the drug administration, and the existence of inhibition. • 6.

Sequence of ATR kinase (Q13535 whole entry): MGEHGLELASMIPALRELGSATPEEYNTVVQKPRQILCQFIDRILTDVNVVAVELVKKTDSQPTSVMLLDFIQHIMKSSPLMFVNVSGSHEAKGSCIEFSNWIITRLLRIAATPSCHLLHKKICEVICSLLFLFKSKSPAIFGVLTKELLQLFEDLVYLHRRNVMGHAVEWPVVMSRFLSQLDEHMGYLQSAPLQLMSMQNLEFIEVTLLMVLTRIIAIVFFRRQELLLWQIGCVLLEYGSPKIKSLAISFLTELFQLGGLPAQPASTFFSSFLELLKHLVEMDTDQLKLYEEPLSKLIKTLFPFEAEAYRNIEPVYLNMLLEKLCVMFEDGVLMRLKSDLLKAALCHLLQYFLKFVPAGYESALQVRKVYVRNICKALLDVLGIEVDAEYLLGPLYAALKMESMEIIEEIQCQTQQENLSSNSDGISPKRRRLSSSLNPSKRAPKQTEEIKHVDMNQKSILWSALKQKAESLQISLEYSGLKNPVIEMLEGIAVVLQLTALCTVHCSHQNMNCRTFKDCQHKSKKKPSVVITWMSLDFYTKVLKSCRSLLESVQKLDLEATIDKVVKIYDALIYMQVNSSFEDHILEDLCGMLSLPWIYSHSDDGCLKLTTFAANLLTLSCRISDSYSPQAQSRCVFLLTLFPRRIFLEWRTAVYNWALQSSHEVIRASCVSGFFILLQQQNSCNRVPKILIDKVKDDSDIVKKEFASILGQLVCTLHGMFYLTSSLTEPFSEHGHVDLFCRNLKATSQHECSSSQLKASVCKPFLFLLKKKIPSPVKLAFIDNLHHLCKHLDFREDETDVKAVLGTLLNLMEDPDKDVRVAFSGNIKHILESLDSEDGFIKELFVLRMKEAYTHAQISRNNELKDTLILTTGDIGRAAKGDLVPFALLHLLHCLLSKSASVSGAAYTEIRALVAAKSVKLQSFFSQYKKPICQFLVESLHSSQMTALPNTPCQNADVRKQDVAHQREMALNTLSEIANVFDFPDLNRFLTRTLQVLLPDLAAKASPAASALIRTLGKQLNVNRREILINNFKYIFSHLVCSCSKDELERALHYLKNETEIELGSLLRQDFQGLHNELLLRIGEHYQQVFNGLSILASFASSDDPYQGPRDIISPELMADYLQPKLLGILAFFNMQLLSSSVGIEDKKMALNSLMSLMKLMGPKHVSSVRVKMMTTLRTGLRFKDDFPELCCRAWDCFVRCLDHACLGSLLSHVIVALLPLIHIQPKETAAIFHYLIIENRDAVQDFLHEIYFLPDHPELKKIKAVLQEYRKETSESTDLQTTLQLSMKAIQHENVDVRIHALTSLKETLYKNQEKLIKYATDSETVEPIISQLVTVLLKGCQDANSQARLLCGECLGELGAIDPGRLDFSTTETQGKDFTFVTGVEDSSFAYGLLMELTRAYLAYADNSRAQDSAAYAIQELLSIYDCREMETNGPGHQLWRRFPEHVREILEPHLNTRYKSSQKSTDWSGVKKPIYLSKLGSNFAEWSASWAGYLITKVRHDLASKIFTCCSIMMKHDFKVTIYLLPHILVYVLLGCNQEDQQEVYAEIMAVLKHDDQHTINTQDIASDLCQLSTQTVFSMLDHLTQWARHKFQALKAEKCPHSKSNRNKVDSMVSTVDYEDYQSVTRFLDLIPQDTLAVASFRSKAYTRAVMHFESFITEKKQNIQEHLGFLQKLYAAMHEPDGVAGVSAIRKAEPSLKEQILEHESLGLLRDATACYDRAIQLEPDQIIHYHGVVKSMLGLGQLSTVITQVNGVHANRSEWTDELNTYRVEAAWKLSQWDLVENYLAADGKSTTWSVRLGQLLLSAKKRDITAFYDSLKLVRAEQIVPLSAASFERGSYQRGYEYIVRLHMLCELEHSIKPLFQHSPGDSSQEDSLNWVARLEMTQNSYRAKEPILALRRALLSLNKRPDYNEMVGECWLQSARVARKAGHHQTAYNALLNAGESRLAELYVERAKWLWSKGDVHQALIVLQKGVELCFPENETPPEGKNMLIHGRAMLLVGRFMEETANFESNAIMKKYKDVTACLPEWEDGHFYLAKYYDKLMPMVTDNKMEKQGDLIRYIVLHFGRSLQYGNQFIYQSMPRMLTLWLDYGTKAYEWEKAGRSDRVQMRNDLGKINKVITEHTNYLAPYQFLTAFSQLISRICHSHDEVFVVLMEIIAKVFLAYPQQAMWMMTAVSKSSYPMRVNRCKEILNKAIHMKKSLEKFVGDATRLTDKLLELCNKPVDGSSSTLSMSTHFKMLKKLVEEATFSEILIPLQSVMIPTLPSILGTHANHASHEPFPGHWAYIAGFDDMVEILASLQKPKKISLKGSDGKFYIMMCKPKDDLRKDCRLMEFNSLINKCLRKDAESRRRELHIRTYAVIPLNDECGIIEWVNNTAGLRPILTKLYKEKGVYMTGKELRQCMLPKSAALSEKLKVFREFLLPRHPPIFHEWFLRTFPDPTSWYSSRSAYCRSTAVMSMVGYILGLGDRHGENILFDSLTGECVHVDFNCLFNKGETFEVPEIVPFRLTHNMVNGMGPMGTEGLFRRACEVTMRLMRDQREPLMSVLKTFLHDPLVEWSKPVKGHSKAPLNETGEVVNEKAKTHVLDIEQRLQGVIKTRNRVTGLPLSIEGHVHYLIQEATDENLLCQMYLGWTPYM
Sequence of ATR kinase (Q8WXE1 whole entry partner): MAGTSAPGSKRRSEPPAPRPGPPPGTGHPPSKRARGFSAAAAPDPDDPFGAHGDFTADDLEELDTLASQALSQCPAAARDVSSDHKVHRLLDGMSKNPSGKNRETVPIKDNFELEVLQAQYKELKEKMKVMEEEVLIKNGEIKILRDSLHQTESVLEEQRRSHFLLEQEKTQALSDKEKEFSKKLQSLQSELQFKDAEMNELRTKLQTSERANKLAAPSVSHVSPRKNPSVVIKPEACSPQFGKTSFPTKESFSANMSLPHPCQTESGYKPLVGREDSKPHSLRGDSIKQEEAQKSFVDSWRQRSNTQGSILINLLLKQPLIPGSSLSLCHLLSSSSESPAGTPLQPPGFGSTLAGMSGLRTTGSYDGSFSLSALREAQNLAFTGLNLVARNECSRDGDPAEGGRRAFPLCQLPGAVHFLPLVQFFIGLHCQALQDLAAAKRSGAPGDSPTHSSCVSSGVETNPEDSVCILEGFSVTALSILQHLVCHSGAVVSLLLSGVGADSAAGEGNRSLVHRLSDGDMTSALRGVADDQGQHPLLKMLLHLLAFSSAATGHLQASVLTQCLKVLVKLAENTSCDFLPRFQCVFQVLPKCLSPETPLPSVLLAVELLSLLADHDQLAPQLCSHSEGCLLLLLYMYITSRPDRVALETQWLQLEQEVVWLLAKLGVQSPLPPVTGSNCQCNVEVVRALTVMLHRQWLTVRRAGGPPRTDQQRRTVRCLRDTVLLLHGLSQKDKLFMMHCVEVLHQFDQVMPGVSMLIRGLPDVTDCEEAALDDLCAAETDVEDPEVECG

Compound: CN(C)C(=O)c1ccc(-c2cnc(N)c(-c3cc(-c4ccc(CNC(=N)N)cc4)no3)n2)cc1 [Example 25, 4-(5-amino-6-(3-(4-(guanidinomethyl)phenyl)isoxazol-5-yl)pyrazin-2-yl)-N,N-dimethylbenzamide dihydrochloride]
- IC50 (ATR kinase): 1.98 nM

Compound: CC(C)S(=O)(=O)c1ccc(-c2cnc(N)c(-c3cc(-c4ccc(C(=O)NC(=N)N)cc4)no3)n2)cc1 [Example 26, dihydrochloride]
- IC50 (ATR kinase): 2.06 nM

Compound: N=C(N)NCc1ccc(-c2cc(-c3nc(-c4ccc5c(c4)CCS5(=O)=O)cnc3N)on2)cc1 [Example 27, 1-(4-(5-(3-amino)-6-(1,1-dioxo-2,3-dihydrobenzo[b]thiophen-5-yl)pyrazin-2-yl)isoxazol-3-yl)benzyl)guanidine dihydrochloride]
- IC50 (ATR kinase): 0.75 nM

Compound: CC(=N)NCc1ccc(-c2cc(-c3nc(-c4ccc(S(=O)(=O)C(C)C)cc4)cnc3N)on2)cc1 [Example 28, N-(4-(5-(3-amino-6-(4-(isopropylsulfonyl)phenyl)pyrazin-2-yl)isoxazol-3-yl)benzyl)acetamidine dihydrochloride]
- IC50 (ATR kinase): 1.29 nM

Compound: CC(C)S(=O)(=O)c1ccc(-c2cnc(N)c(-c3cc(-c4ccc(CNC(=N)N)cc4C(F)(F)F)no3)n2)cc1 [Example 30, 1-(4-(5-(3-amino-6-(4-(isopropylsulfonyl)phenyl)pyrazin-2-yl)isoxazol-3-yl)-3-(trifluoromethyl)benzyl)guanidine dihydrochloride]
- IC50 (ATR kinase): 3.35 nM

Compound: CC(C)S(=O)(=O)c1ccc(-c2cnc(N)c(-c3cc(-c4ccc5c(c4)CNC5=O)no3)n2)cc1 [Example 31]
- IC50 (ATR kinase): 4 nM

Compound: CNCc1ccc(-c2cc(-c3nc(-c4ccc5c(c4)C(F)C(C)(C)S5(=O)=O)cnc3N)on2)cc1 (stereo not shown) [Example 32, 5-(5-amino-6-(3-(4-((methylamino)methyl)phenyl)isoxazol-5-yl)pyrazin-2-yl)-3-fluoro-2,2-dimethyl-2,3-dihydrobenzo[b]thiophene 1,1-dioxide]
- IC50 (ATR kinase): 2.09 nM

Compound: CNCc1ccc(-c2cc(-c3nc(-c4ccc5c(c4)C(F)C(C)(C)S5(=O)=O)cnc3N)no2)cc1 (stereo not shown) [Example 34, 5-(5-amino-6-(5-(4-((methylamino)methyl)phenyl)isoxazol-3-yl)pyrazin-2-yl)-3-fluoro-2,2-dimethyl-2,3-dihydrobenzo[b]thiophene 1,1-dioxide]
- IC50 (ATR kinase): 0.92 nM

Compound: CN1CCC(NCc2ccc(-c3nnc(-c4nc(-c5ccc6c(c5)C(F)C(C)(C)S6(=O)=O)cnc4N)o3)cc2)CC1 (stereo not shown) [Example 36]
- IC50 (ATR kinase): 0.57 nM

Compound: CNCc1ccc(-c2nnc(-c3nc(-c4ccc5c(c4)C(F)C(C)(C)S5(=O)=O)cnc3N)s2)cc1 (stereo not shown) [Example 37, 5-(5-amino-6-(5-(4-((methylamino)methyl)phenyl)-1,3,4-thiadiazol-2-yl)pyrazin-2-yl)-3-fluoro-2,2-dimethyl-2,3-dihydrobenzo[b]thiophene 1,1-dioxide]
- IC50 (ATR kinase): 0.77 nM

Compound: CNCc1ccc(-c2cc(-c3nc(-c4ccc(S(=O)(=O)C(C)C)cc4)cnc3N)on2)cc1 [VX-970, Berzosertib, reference compound]
- TGI (%) [1]: 128%
- Tumor change (%) [1]: −12%
- Tumor change (%) ([1]; listed as VX970): −13%
- body weight of mice after drug administration [1]: decrease in body weight
- Tumor volume (mm^3) day 0 [1]: 266 mm^3
- Tumor volume (mm^3) day 14 [1]: 231 mm^3

Compound: (R)-5-(5-amino-6-(3-(4-((methylamino)methyl)phenyl)isoxazol-5-yl)pyrazin-2-yl)-3-fluoro-2,2-dimethyl-2,3-dihydrobenzo[b]thiophene 1,1-dioxide or (S)-5-(5-amino-6-(3-(4-((methylamino)methyl)phenyl)isoxazol-5-yl)pyrazin-2-yl)-3-fluoro-2,2-dimethyl-2,3-dihydrobenzo[b]thiophene 1,1-dioxide [Example 35-1 or 35-2]
- IC50 (ATR kinase): 0.41 nM

Compound: (R)-5-(5-amino-6-(3-(4-((methylamino)methyl)phenyl)isoxazol-5-yl-4-deuterium)pyrazin-2-yl)-3-fluoro-2,2-dimethyl-2,3-dihydrobenzo[b]thiophene 1,1-dioxide or (S)-5-(5-amino-6-(3-(4-((methylamino)methyl)phenyl)isoxazol-5-yl-4-deuterium)pyrazin-2-yl)-3-fluoro-2,2-dimethyl-2,3-dihydrobenzo[b]thiophene 1,1-dioxide [Example 38-1 or 38-2]
- TGI (%) [1]: 159%
- Tumor change (%) [1]: −29%
- body weight of mice after drug administration [1]: decrease in body weight
- decrease in tumor volume compared to the Cisplatin+VX-970 group [1]: more obvious decrease in tumor volume
- Tumor volume (mm^3) day 0 [1]: 252 mm^3
- Tumor volume (mm^3) day 14 [1]: 180 mm^3
- IC50 (ATR kinase): 0.75 nM

Compound: (R)-5-(5-amino-6-(5-(4-((methylamino)methylene)phenyl)-1,3,4-oxadiazol-2-yl)pyrazin-2-yl)-3-fluoro-2,2-dimethyl-2,3-dihydrobenzo[b]thiophene 1,1-dioxide or (S)-5-(5-amino-6-(5-(4-((methylamino)methylene)phenyl)-1,3,4-oxadiazol-2-yl)pyrazin-2-yl)-3-fluoro-2,2-dimethyl-2,3-dihydrobenzo[b]thiophene 1,1-dioxide [Example 33-1 or 33-2]
- TGI (%) [1]: 245%
- Tumor change (%) [1]: −66%
- body weight of mice after drug administration [1]: decrease in body weight
- decrease in tumor volume compared to the Cisplatin+VX-970 group [1]: more obvious decrease in tumor volume
- Tumor volume (mm^3) day 0 [1]: 267 mm^3
- Tumor volume (mm^3) day 14 [1]: 92 mm^3
- IC50 (ATR kinase): 0.83 nM
